In EPA's ToxValDB 9.5 (doi:10.2903/j.efsa.2018.5229):
In brackets after ≈: the same amount, converted by molar mass.

Legend:
Anas platyrhynchos = settings: acute; oral; unspecified; mortality
Apis mellifera = settings: acute, mortality
Canidae = settings: chronic; duration: 1 years; oral; Dog Other; body weight
Colinus virginianus = settings: reproduction developmental
Daphnia magna = settings: chronic/long-term; duration: 21 days; reproduction
Ictalurus punctatus = settings: acute; duration: 96 hours; mortality
Oryctolagus sp. = settings: reproduction developmental; mortality
Pimephales promelas = settings: chronic/long-term; duration: 35 days
Rattus norvegicus = settings: oral
Tagia sp. = settings: chronic/long-term; reproduction
Chrysoperla externa = assay: LR50; higher = less toxic; settings: not reported; mortality
Typhlodromus pyri = assay: LR50; higher = less toxic; settings: not reported; mortality

Work on CCOC(=O)C1CC(=O)C(=C(O)C2CC2)C(=O)C1 (centres undefined) [Trinexapac-ethyl] yielded an LD50 (Anas platyrhynchos) greater than 2000 mg/kg-day, an LD50 (Apis mellifera; dermal) greater than 100 µg/piece and an LD50 (Apis mellifera; oral, unspecified) greater than 83 µg/piece. The NOAEL (Canidae) was 32 mg/kg-day, the NOEL (Colinus virginianus) was 17.6 mg/kg-day and the NOEC (Daphnia magna) was 2.4 mg/L. For the same compound, the LC50 (Ictalurus punctatus) was 35 µg/mL (≈ 139 µM), the NOAEL (Oryctolagus sp.) was 60 mg/kg-day and the NOEC (Pimephales promelas) was 0.41 mg/L. The LD50 (Rattus norvegicus; acute, mortality) was 4210 mg/kg-day, the NOAEL (Rattus norvegicus; subchronic, duration: 90 days, body weight) was no more than 34 mg/kg-day and the NOEC (Tagia sp.) was 81.9 mg/kg. For the same compound, the LR50 (Chrysoperla externa) was greater than 400 g/ha and the LR50 (Typhlodromus pyri) was greater than 15 g/ha.
